# Measurements taken from patent publication US20260373165A1, “PHARMACEUTICAL COMBINATIONS AND COMPOSITIONS, AND METHODS OF USE THEREOF” (SHENZHEN HIGHTIDE BIOPHARMACEUTICAL LTD., priority 2022, published 2026).
# Assays:
# Type in all cases: in vivo, mouse (C57BL/6J male, 60% HFD DIO)
# [1] = Example 1: body fat mass by MRI after 25 days
# Text: (§1) After 5-week-old C57BL/6J male mice were acclimatized for 1 week, the weight of each mouse was weighed, and the mice were randomly divided into a control group and a model group by taking the weight as a main index, where 12 mice in the control group were fed with common feed (CD), and the mice in the remaining model group were fed with 60% high-fat feed (60% HFD) for 10-12 weeks to construct a DIO obesity model, with the average body weight being not less than 40 g. The mice fed with 60% HFD were grabbed and acclimatized with a solvent for 3 days, where the acclimatization with a solvent was performed by oral gavage of 0.5% CMC-Na, twice daily.
# (§2) The food intake, the body weight, the body fat ratio, and the insulin level of the mice were respectively measured, followed by fasting blood glucose level, and the mice were randomly grouped according to Table 3 by taking the body weight as an index, and the remaining ungrouped mice were euthanized. After grouping, each group of mice was administered according to Table 3, the day of administration was defined as DO, and the administration volume of each drug was determined based on the results obtained by the calculation of 5 μL/g× mouse body weight (g).
# (§3) For the combined administration group, the total administration volume was the sum of the administration volumes of two single drugs, and the administration sequence and the administration time were kept consistent at each administration. The mice were continuously fed with high-fat feed during the administration period until the administration was finished. During administration, 2 food intakes were measured per week (difference in feed weights at an interval of 24 h was measured); each group of mice was weighed once daily; postprandial blood glucose levels were measured weekly; blood was collected from the tail tip on day 6 and day 20, respectively, so as to measure fasting blood glucose levels once (blood was collected after fasting from 8:00 am to […]); on day 25 of administration, the body fat ratio and the lean mass of each group of mice were measured by MRI (the measurement period was kept consistent with that before grouping); after 4 weeks of administration intervention (day 28), each group of mice was fasted for 6 h and subjected to OGTT (0 min, 15 min, 30 min, 60 min, 90 min, 120 min) to detect their blood glucose levels, and meanwhile subjected to blood sampling via submaxillary vein (0 min, 15 min, 30 min, about 30 μL of blood sampled each time), and then the blood plasma was separated for detecting the insulin level by ELISA, where the separated blood plasma was more than 10 μL; the next day (D29) at the end of administration was set as the test endpoint, and the mice were fasted for 6 h in the morning and subjected to fasting blood glucose level measurement; subsequently, the mice were euthanized with CO2, blood was collected from the heart of each mouse for analysis, and each group of mice was dissected; the liver and subcutaneous, epididymal and mesenteric fat was collected, photographed and weighed, respectively.
# After 25 days of administration, the body weight, the body fat mass and the body fat ratio of each animal in groups G1 to G6 were measured and averaged for each group, and the results are shown in Table 5 below, FIG. 4 and FIG. 5.
# [2] = Example 1: body weight and body weight change rate, combined administration of HTD1801 and empagliflozin in DIO obesity model; conditions: semaglutide 10 nmol/kg s.c. Q3D
# Text: as §1, §2, §3
# [3] = Example 1: liver, abdominal and subcutaneous fat weight after 28 days; conditions: mean, HTD1801 200 mpk, empagliflozin 10 mpk in last 2 weeks (300/15 mpk before)
# Text: as §1, §2, §3
# After 28 days of administration, the mice were euthanized with CO2 the next day, and the mice of groups G1 to G5 were dissected, and liver and abdominal fat (including epididymis and mesentery), and subcutaneous fat were collected, photographed and weighed, respectively, and the results are shown in Table 6 below, FIG. 6, FIG. 7, and FIG. 8.
# [4] = Example 1: food intake within 24 h; conditions: during administration period, vs model control group
# Text: as §1
# as §2, with “(g). […]” for “(g).”
# [5] = Example 1: lean mass by MRI after 25 days
# Text: as §1, §2, §3
# After 25 days of administration, the body weight, the Lean weight and the lean ratio of each animal in groups G1 to G5 were measured and averaged for each group, and the results are shown in Table 7 below, FIG. 9 and FIG. 10.
# [6] = mean, after 25 days of administration, HTD1801 200 mpk, empagliflozin 10 mpk in last 2 weeks (300/15 mpk before), semaglutide 10 nmol/kg s.c. Q3D
# [7] = day 0 (baseline), HTD1801 300 mpk, empagliflozin 15 mpk gavage QD
# [8] = day 1, HTD1801 300 mpk, empagliflozin 15 mpk gavage QD
# [9] = day 2, HTD1801 300 mpk, empagliflozin 15 mpk gavage QD
# [10] = day 3, HTD1801 300 mpk, empagliflozin 15 mpk gavage QD
# [11] = day 4, HTD1801 300 mpk, empagliflozin 15 mpk gavage QD
# [12] = day 5, HTD1801 300 mpk, empagliflozin 15 mpk gavage QD
# [13] = day 6, HTD1801 300 mpk, empagliflozin 15 mpk gavage QD
# [14] = day 7, HTD1801 300 mpk, empagliflozin 15 mpk gavage QD
# [15] = day 8, HTD1801 300 mpk, empagliflozin 15 mpk gavage QD
# [16] = day 9, HTD1801 300 mpk, empagliflozin 15 mpk gavage QD
# [17] = day 10, HTD1801 300 mpk, empagliflozin 15 mpk gavage QD
# [18] = day 11, HTD1801 300 mpk, empagliflozin 15 mpk gavage QD
# [19] = day 12, HTD1801 300 mpk, empagliflozin 15 mpk gavage QD
# [20] = day 13, HTD1801 300 mpk, empagliflozin 15 mpk gavage QD
# [21] = day 14, HTD1801 300 mpk, empagliflozin 15 mpk gavage QD
# [22] = day 15, HTD1801 200 mpk, empagliflozin 10 mpk (reduced after week 2) gavage QD
# [23] = day 16, HTD1801 200 mpk, empagliflozin 10 mpk (reduced after week 2) gavage QD
# [24] = day 17, HTD1801 200 mpk, empagliflozin 10 mpk (reduced after week 2) gavage QD
# [25] = day 18, HTD1801 200 mpk, empagliflozin 10 mpk (reduced after week 2) gavage QD
# [26] = day 19, HTD1801 200 mpk, empagliflozin 10 mpk (reduced after week 2) gavage QD
# [27] = day 20, HTD1801 200 mpk, empagliflozin 10 mpk (reduced after week 2) gavage QD
# [28] = day 21, HTD1801 200 mpk, empagliflozin 10 mpk (reduced after week 2) gavage QD
# [29] = day 22, HTD1801 200 mpk, empagliflozin 10 mpk (reduced after week 2) gavage QD
# [30] = day 23, HTD1801 200 mpk, empagliflozin 10 mpk (reduced after week 2) gavage QD
# [31] = day 24, HTD1801 200 mpk, empagliflozin 10 mpk (reduced after week 2) gavage QD
# [32] = day 25, HTD1801 200 mpk, empagliflozin 10 mpk (reduced after week 2) gavage QD
# [33] = day 26, HTD1801 200 mpk, empagliflozin 10 mpk (reduced after week 2) gavage QD
# [34] = day 27, HTD1801 200 mpk, empagliflozin 10 mpk (reduced after week 2) gavage QD
# [35] = day 28, HTD1801 200 mpk, empagliflozin 10 mpk (reduced after week 2) gavage QD
# [36] = mean, after 25 days of administration, HTD1801 200 mpk, empagliflozin 10 mpk in last 2 weeks (300/15 mpk before)
structure (smiles),measurement,setting,value
"COc1ccc2cc3[n+](cc2c1OC)CCc1cc2c(cc1-3)OCO2.C[C@H](CCC(=O)[O-])[C@H]1CC[C@H]2[C@@H]3[C@@H](O)C[C@@H]4C[C@H](O)CC[C@]4(C)[C@H]3CC[C@]12C [HTD1801, berberine ursodeoxycholate]",body fat mass and body fat ratio (in words),"[1]; after 25 days, relative to control group G2",decreased
same,Body weight,"[1]; mean, after 25 days of administration (Table 5), HTD1801 200 mpk, empagliflozin 10 mpk in last 2 weeks (300/15 mpk before), semaglutide 10 nmol/kg s.c. Q3D",40.10 g
same,Body fat ratio,[1]; [6],40.12%
same,Fat (body fat mass),[1]; [6],16.23 g
same,body weight change (in words),"[2]; after 14 days, reduced dose: HTD1801 200 mpk, empagliflozin 10 mpk",slight rebound
same,Body weight (mean),[2]; [7],43.6 g
same,Body weight change rate,[2]; [7],0.0%
same,Body weight (mean),[2]; [8],42.9 g
same,Body weight change rate,[2]; [8],−1.6%
same,Body weight (mean),[2]; [9],43.1 g
same,Body weight change rate,[2]; [9],−1.2%
same,Body weight (mean),[2]; [10],42.3 g
same,Body weight change rate,[2]; [10],−3.0%
same,Body weight (mean),[2]; [11],42.3 g
same,Body weight change rate,[2]; [11],−2.9%
same,Body weight (mean),[2]; [12],42.5 g
same,Body weight change rate,[2]; [12],−2.6%
same,Body weight (mean),[2]; [13],42.0 g
same,Body weight change rate,[2]; [13],−3.8%
same,Body weight (mean),[2]; [14],41.5 g
same,Body weight change rate,[2]; [14],−4.9%
same,Body weight (mean),[2]; [15],40.8 g
same,Body weight change rate,[2]; [15],−6.2%
same,Body weight (mean),[2]; [16],40.7 g
same,Body weight change rate,[2]; [16],−6.6%
same,Body weight (mean),[2]; [17],40.7 g
same,Body weight change rate,[2]; [17],−6.5%
same,Body weight (mean),[2]; [18],40.6 g
same,Body weight change rate,[2]; [18],−6.8%
same,Body weight (mean),[2]; [19],40.8 g
same,Body weight change rate,[2]; [19],−6.3%
same,Body weight (mean),[2]; [20],40.4 g
same,Body weight change rate,[2]; [20],−7.1%
same,Body weight (mean),[2]; [21],39.7 g
same,Body weight change rate,[2]; [21],−8.7%
same,Body weight (mean),[2]; [22],39.5 g
same,Body weight change rate,[2]; [22],−9.0%
same,Body weight (mean),[2]; [23],39.6 g
same,Body weight change rate,[2]; [23],−8.8%
same,Body weight (mean),[2]; [24],39.4 g
same,Body weight change rate,[2]; [24],−9.3%
same,Body weight (mean),[2]; [25],38.9 g
same,Body weight change rate,[2]; [25],−10.3%
same,Body weight (mean),[2]; [26],38.9 g
same,Body weight change rate,[2]; [26],−10.3%
same,Body weight (mean),[2]; [27],39.2 g
same,Body weight change rate,[2]; [27],−8.4%
same,Body weight (mean),[2]; [28],39.5 g
same,Body weight change rate,[2]; [28],−7.8%
same,Body weight (mean),[2]; [29],39.7 g
same,Body weight change rate,[2]; [29],−7.2%
same,Body weight (mean),[2]; [30],40.2 g
same,Body weight change rate,[2]; [30],−6.0%
same,Body weight (mean),[2]; [31],40.5 g
same,Body weight change rate,[2]; [31],−5.4%
same,Body weight (mean),[2]; [32],40.7 g
same,Body weight change rate,[2]; [32],−4.8%
same,Body weight (mean),[2]; [33],40.1 g
same,Body weight change rate,[2]; [33],−6.5%
same,Body weight (mean),[2]; [34],40.2 g
same,Body weight change rate,[2]; [34],−6.2%
same,Body weight (mean),[2]; [35],39.5 g
same,Body weight change rate,[2]; [35],−7.9%
same,body weight change / weight loss effect (in words),"[2]; within 14 days, HTD1801 300 mpk, empagliflozin 15 mpk gavage QD",continuously decreased over time
same,Epididymal fat weight,[3],2.31 g
same,Liver weight,[3],0.98 g
same,Mesenteric fat weight,[3],0.78 g
same,Subcutaneous fat weight,[3],2.32 g
same,food intake within 24 h (in words),[4],lower than the food intake for the model control group
same,lean mass (in words),"[5]; after 25 days, relative to model control group G2",increased
same,Body weight,"[5]; mean, after 25 days of administration (Table 7), HTD1801 200 mpk, empagliflozin 10 mpk in last 2 weeks (300/15 mpk before)",40.10 g
same,Lean (lean mass),[5]; [36],7.50 g
same,Lean ratio,[5]; [36],19.02%
